Laboratory results taken from patent publication US11739098B2 (BRISTOL-MYERS SQUIBB COMPANY, priority 2017, dated 2023).

What was measured:
Assay type in all cases: cell-based
human TLR7 = biological target: T1, human TLR7 (Homo sapiens, UniProt Q9NYK1); test: TLR7 inhibition reporter assay (HEK-Blue cells, SEAP reporter, gardiquimod stimulation); details: HEK-Blue cells overexpressing human TLR7, SEAP reporter, gardiquimod 7.5 μM
T1 construct: host or cells: HEK-Blue cells (HEK293-derived reporter line)
T1 sequence (Q9NYK1 27-1049): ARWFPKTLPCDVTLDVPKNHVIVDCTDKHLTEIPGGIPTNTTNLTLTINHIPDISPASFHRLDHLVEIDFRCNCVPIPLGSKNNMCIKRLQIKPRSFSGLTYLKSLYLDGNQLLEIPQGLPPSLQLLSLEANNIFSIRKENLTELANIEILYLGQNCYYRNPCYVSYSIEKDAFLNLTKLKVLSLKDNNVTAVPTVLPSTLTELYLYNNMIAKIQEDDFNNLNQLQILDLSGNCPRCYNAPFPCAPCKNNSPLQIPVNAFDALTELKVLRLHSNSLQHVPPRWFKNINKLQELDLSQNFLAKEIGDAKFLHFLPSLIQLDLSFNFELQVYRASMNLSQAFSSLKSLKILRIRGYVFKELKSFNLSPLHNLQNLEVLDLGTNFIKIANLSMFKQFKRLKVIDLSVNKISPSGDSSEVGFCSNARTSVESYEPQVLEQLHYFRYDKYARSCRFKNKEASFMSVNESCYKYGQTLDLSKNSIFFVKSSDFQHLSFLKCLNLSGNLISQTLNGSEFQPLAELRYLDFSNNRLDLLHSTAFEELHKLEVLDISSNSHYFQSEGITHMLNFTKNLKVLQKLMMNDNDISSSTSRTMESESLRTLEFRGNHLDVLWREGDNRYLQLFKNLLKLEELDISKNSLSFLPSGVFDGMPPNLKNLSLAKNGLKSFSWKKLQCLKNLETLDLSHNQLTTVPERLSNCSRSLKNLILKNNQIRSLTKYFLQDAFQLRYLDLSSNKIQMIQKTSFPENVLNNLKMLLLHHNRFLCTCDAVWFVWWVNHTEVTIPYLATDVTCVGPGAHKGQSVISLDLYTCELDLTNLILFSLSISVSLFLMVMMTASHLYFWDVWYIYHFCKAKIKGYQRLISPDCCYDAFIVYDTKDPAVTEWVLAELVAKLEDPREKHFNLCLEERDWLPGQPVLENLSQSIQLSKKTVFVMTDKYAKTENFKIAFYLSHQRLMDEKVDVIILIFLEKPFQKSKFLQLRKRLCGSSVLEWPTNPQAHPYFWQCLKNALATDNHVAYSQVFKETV
Summary of the method: (§1)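 Agonists (final): TLR7 gardiquimod 7.5 μM; TLR8 R848 15.9 μM; TLR9 ODN2006 5 nM. HEK-Blue reporter cells, 30 min RT compound pre-incubation, 0.05 nM–50 μM dose range, 22 h at 37 °C, colorimetric SEAP detection medium. % inhibition relative to agonist+DMSO and known-inhibitor wells.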

human TLR8 = biological target: T2, human TLR8 (Homo sapiens, UniProt Q9NR97); test: TLR8 inhibition reporter assay (HEK-Blue cells, SEAP reporter, R848 stimulation); details: HEK-Blue cells overexpressing human TLR8, SEAP reporter, R848 15.9 μM
T2 construct: host or cells: HEK-Blue cells (HEK293-derived reporter line)
T2 sequence (Q9NR97 27-1041): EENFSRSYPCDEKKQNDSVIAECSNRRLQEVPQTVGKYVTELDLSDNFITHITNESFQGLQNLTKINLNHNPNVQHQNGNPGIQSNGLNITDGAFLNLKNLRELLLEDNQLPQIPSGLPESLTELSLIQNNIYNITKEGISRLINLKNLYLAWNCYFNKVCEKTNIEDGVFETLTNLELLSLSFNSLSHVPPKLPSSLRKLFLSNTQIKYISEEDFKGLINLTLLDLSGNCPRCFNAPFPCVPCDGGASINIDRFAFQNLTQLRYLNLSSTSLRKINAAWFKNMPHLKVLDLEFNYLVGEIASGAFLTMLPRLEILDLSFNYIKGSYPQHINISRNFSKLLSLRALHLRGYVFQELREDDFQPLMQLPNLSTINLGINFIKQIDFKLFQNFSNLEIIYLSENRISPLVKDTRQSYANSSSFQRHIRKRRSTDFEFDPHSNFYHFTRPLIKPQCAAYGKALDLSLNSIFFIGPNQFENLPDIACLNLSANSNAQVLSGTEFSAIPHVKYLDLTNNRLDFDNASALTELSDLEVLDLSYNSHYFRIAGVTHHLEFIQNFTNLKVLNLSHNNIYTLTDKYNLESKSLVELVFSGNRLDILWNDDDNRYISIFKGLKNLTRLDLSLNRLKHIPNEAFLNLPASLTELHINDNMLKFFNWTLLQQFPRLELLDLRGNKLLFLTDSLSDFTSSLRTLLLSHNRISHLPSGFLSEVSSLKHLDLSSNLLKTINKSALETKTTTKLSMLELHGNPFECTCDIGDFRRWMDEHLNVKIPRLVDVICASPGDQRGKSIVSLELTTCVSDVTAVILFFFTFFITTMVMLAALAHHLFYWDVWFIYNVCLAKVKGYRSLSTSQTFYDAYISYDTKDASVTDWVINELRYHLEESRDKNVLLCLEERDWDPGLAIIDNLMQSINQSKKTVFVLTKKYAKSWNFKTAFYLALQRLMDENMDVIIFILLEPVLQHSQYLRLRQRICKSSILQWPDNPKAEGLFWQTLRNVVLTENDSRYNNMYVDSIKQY
Summary of the method: as §1

human TLR9 = biological target: T3, human TLR9 (Homo sapiens, UniProt Q9NR96); test: TLR9 inhibition reporter assay (HEK-Blue cells, SEAP reporter, ODN2006 stimulation); details: HEK-Blue cells overexpressing human TLR9, SEAP reporter, ODN2006 5 nM
T3 construct: host or cells: HEK-Blue cells (HEK293-derived reporter line)
T3 sequence (Q9NR96 26-1032): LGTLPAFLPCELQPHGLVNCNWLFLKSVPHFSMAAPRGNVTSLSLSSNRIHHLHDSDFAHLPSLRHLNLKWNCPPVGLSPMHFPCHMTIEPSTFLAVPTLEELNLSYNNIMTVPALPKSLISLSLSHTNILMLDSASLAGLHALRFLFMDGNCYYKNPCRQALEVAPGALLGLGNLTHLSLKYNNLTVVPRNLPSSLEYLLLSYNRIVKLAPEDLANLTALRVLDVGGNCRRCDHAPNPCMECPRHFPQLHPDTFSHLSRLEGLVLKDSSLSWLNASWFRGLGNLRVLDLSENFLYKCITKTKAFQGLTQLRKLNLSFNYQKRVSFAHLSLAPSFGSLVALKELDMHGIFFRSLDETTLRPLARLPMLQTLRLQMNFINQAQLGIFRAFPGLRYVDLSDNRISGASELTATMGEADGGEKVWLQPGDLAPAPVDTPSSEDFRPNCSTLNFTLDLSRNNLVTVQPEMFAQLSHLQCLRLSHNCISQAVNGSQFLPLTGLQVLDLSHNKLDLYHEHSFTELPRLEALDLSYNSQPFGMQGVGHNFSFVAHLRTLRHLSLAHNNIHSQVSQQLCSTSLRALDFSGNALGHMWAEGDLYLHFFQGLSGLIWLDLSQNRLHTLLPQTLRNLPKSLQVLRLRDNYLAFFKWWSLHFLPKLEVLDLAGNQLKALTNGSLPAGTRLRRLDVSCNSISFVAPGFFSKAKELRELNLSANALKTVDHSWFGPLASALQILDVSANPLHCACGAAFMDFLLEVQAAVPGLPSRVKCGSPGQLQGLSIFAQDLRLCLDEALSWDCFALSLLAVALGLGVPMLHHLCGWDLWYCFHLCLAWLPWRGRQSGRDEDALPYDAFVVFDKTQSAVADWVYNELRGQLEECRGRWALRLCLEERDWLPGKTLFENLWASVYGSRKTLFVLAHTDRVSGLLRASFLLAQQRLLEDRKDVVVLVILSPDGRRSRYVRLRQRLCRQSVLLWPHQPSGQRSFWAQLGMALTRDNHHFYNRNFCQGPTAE
Summary of the method: as §1

Compound	IC50 (human TLR7)	IC50 (human TLR8)	IC50 (human TLR9)
CC(C)c1c(-c2ccn3cnnc3c2)[nH]c2ccc(C3CCN(CC(=O)N(C)C)CC3)cc12 [Example 305, 2-(4-(2-([1,2,4]triazolo[4,3-a]pyridin-7-yl)-3-isopropyl-1H-indol-5-yl)piperidin-1-yl)-N,N-dimethylacetamide]	100 to 1000 nM	100 to 1000 nM	1000 to 50000 nM
Cc1n[nH]c2nccc(-c3[nH]c4ccc(C5CCNCC5)cc4c3C(C)C)c12 [Example 227, 4-(3-isopropyl-5-(piperidin-4-yl)-1H-indol-2-yl)-3-methyl-1H-pyrazolo[3,4-b]pyridine]	< 100 nM	< 100 nM	100 to 1000 nM
CC(C)c1c(-c2ccc3nccn3c2)[nH]c2ccc(C3CCNCC3)c(F)c12 [Example 258, 6-(4-fluoro-3-isopropyl-5-(piperidin-4-yl)-1H-indol-2-yl)imidazo[1,2-a]pyridine]	< 100 nM	< 100 nM	100 to 1000 nM
Cc1nc2cc(-c3[nH]c4ccc(C5CCN(CC(=O)N(C)C)CC5)cc4c3C(C)C)cc(C)c2o1 [Example 338, 2-(4-(2-(2,7-dimethylbenzo [d]oxazol-5-yl)-3-isopropyl-1H-indol-5-yl)piperidin-1-yl)-N,N-dimethylacetamide]	< 100 nM	100 to 1000 nM	1000 to 50000 nM
CC(C)c1c(-c2cn(C)c3c(=O)n(C)ccc23)[nH]c2ccc(C3CCN(CC(=O)N(C)C)CC3)cc12 [Example 297, 2-(4-(2-(1,6-dimethyl-7-oxo-6,7-dihydro-1H-pyrrolo[2,3-c]pyridin-3-yl)-3-isopropyl-1H-indol-5-yl)piperidin-1-yl)-N,N-dimethylacetamide]	< 100 nM	< 100 nM	1000 to 50000 nM
Cc1cc(-c2[nH]c3ccc(C4CCNCC4)cc3c2C(C)C)cn2cc(C(=O)NCCO)nc12 [Example 267, N-(2-hydroxyethyl)-6-(3-isopropyl-5-(piperidin-4-yl)-1H-indol-2-yl)-8-methylimidazo[1,2-a]pyridine-2-carboxamide]	< 100 nM	< 100 nM	1000 to 50000 nM
CCc1c(-c2ccnc3[nH]ncc23)[nH]c2ccc(C3CCN(Cc4cc(-c5ccccc5)on4)CC3)cc12 [Example 897, 3-((4-(3-ethyl-2-(1H-pyrazolo[3,4-b]pyridin-4-yl)-1H-indol-5-yl)piperidin-1-yl)methyl)-5-phenylisoxazole]	1000 to 50000 nM	100 to 1000 nM	1000 to 50000 nM
CC(C)c1c(-c2cc(F)c3nccn3c2)[nH]c2ccc(C3CCN(C(=O)C[C@H](C)O)CC3)cc12 [Example 604, (S)-1-(4-(2-(8-fluoroimidazo[1,2-a]pyridin-6-yl)-3-isopropyl-1H-indol-5-yl)piperidin-1-yl)-3-hydroxybutan-1-one]	< 100 nM	1000 to 50000 nM	> 50000 nM
CC(C)c1c(-c2ccnc3[nH]ncc23)[nH]c2ccc(C3CCN(C(=O)CN4CC[C@@H](O)C4)CC3)cc12 [Example 579, (R)-2-(3-hydroxypyrrolidin-1-yl)-1-(4-(3-isopropyl-2-(1H-pyrazolo[3,4-b]pyridin-4-yl)-1H-indol-5-yl)piperidin-1-yl)ethan-1-one]	< 100 nM	< 100 nM	100 to 1000 nM
Cc1c(-c2[nH]c3ccc(C4CCN(C(=O)CN(C)C)CC4)cc3c2C(C)C)cn2ccnc2c1C [Example 549, 2-(dimethylamino)-1-(4-(2-(7,8-dimethylimidazo[1,2-a]pyridin-6-yl)-3-isopropyl-1H-indol-5-yl)piperidin-1-yl)ethan-1-one]	< 100 nM	< 100 nM	100 to 1000 nM
CC(C)c1c(-c2ccnc3[nH]ncc23)[nH]c2ccc(C3CCN(C4CCOCC4)CC3)cc12 [Example 682, 4-(3-isopropyl-5-(1-(tetrahydro-2H-pyran-4-yl)piperidin-4-yl)-1H-indol-2-yl)-1H-pyrazolo[3,4-b]pyridine]	< 100 nM	< 100 nM	1000 to 50000 nM
CC(C)c1c(-c2ccc3[nH]ccc3c2)[nH]c2ccc(C3CCNCC3)cc12 [Example 66, 3-isopropyl-5-(piperidin-4-yl)-1H,1′H-2,5′-biindole]	1000 to 50000 nM	1000 to 50000 nM	1000 to 50000 nM
Cc1cc(-c2[nH]c3ccc(C4CCN(C(=O)CN(C)C)CC4)cc3c2C(C)C)cn2nnnc12 [Example 477, 2-(dimethylamino)-1-(4-(3-isopropyl-2-(8-methyltetrazolo[1,5-a]pyridin-6-yl)-1H-indol-5-yl)piperidin-1-yl)ethan-1-one]	< 100 nM	< 100 nM	1000 to 50000 nM
Cc1nc2c(-c3[nH]c4ccc(C5CCNCC5)cc4c3C)ccnc2[nH]1 [Example 232, 2-methyl-7-(3-methyl-5-(piperidin-4-yl)-1H-indol-2-yl)-3H-imidazo[4,5-b]pyridine]	1000 to 50000 nM	1000 to 50000 nM	100 to 1000 nM
